Values quoted from earlier work, collected in patent US20240050502A1, “AMANITA MUSCARIA COMPOUNDS” (priority 2020, published 2024).

Columns and labels:
[1] = in vivo
mice = conditions: for LD50: intravenous administration in mice
[2] = system: inflammatory pain induced by formalin; conditions: mice
monkey = conditions: quantity many times that which would cause poisoning by ingestion of Amanita muscaria in the human

For β(1→6)-branched (1→3)-β-d-glucan, the “antitumor activity against sarcoma 180 tumors” value (sarcoma 180 tumors; mice) is listed as “significant antitumor activity” and the “antitumor effect when mixed with mitomycin C” value (sarcoma 180 tumors; mixed with the chemotherapy drug mitomycin C) is listed as “greater than that of mitomycin C alone”.
For `N[C@H](C(=O)O)c1cc(=O)[nH]o1` [ibotenic acid], the “minimum dose needed to obtain psychedelic effects” value [1] is given as 30 to 60 mg, the LD50 (mice) is given as 15 mg/kg and the “oral LD50” value (mice; oral, mice) is given as 38 mg/kg.
For fucomannogalactan, the “inflammatory pain induced by formalin” value [2] is given as “significantly reduced”.
For `NCc1cc(=O)[nH]o1` [muscimol], the “dose at which central nervous system intoxication occurs” value [1] is given as 6.0 mg and the LD50 (mice) is given as 5.62 mg/kg.
In the case of `C[C@@H]1O[C@H](C[N+](C)(C)C)C[C@H]1O` [muscarine], the activity by mouth (monkey) is given as “inactive”.
